The nature of data set [1]: Hygroscopicity (moisture uptake) of the supplied SMA drug substance. In kind it is physicochemical. From the text: (§1) Sodium meta-arsenite (“SMA”) was obtained from Sigma Aldrich Fine Chemicals. […]
Data set [2] can be described thus: Solubility of the supplied SMA drug substance. The data set is classed as physicochemical.
Excerpt: as §1

From patent publication US12257347B2, “Pharmaceutical composition comprising meta arsenite and method of manufacture” (KOMIPHARM INT[…] PTY LTD, priority 2018, dated 2025) come the findings set out here.

Each structure is given as a SMILES string.

`O=[As][O-].[Na+]` [SMA, sodium meta-arsenite]: the “Hygroscopicity (moisture uptake)” value in data set [1] (at 75% RH) was around 40% at 75% RH; in data set [1] (at 80% RH) it was above 80% at 80% RH; in data set [1] (at 90% RH), above 130% at 90% RH. Also, in data set [2], the Solubility entry is recorded as “Approx. 950 mg/mL”.
